The source of these data is patent US20230399666A1, “METHODS AND COMPOSITIONS FOR THE PRODUCTION OF RHAMNOLIPID” (THE REGENTS OF THE UNIVERSITY OF CALIFORNIA, priority 2022, published 2023).

Some results are limits rather than exact numbers.

One test has as its system M. alcahphilum. The test is described as follows: Antimicrobial activity of Ptet inducer anhydrotetracycline, evaluated on methanol. The format is cell-based, Methylotuvimicrobium alcaliphilum. Here is the method:
Luria-Bertani (LB) broth and agar plates are routinely used to culture E. coli cells at 37° C. For routine cultivation of M. alcahphilum strain WT (wild type) and its derivatives, Pi (π) media with 3% (w/v) NaCl is used as described in Collins and Kaluzhnaya.^56 When needed, kanamycin (Kan) is added to the growth medium at 100 μg/mL for ts. alcahphilum and 50 μg/mL for E. coli cultures. Ampicillin is added to the growth medium at 100 μg/mL. M alcahphilum cell cultures are grown as batch cultures, either 4 mL culture in 20 mL anaerobic glass tubes or 10 mL culture in 50 mL serum vials, under a methane (99.9%; Airgas): air atmosphere (1:1). Cell cultures are incubated at 30° shaking at 220 rpm. Cell growth is measured as optical density (OD 600 nm) using Spectronic 200E spectroscope at time points mentioned in results and discussion. Single colony isolates and transformant selections are performed on Pi media agar plates incubated in anaerobic jars (Oxoid; Remel) under a methane-air atmosphere (1:1). For M. alcahphilum (pDA17) induction, antimicrobial activity of Ptet inducer, anhydrotetracycline (aTC) is first evaluated (FIG. 7) on methanol, it is observed that aTC antimicrobial effect on M. alcahphilum is apparent at concentration >2.5 μg/mL. Thus, based on the observation and previous report 33 , concentration of 1 μg/mL aTC is used for optimal gene expression. […]

Test [1] deals with M. alcaliphilum strain DSM19304 (WT). The test is described as follows: Inhibitory effect of rhamnolipids on growth (OD600) of M. alcaliphilum wild type on CH4. The test is classed as cell-based, Methylotuvimicrobium alcaliphilum. From the text:
M. alcaliphilum converts methane by sequential oxidation to formaldehyde, which enters the central carbon metabolism through the RUMP pathway^39. M. alcaliphilum produces high amounts of glycogen, sucrose and ectoine with smaller amounts of lactate, formate, succinate and no known reports of RLs^38,40,41. Rhamnolipids are used as biocontrol/anti-microbial agents, and increasing rhamnolipid concentrations are found to negatively impact growth of Gram-negative and Gram-positive heterologous hosts, E. coli, Bacillus subtilis and Corynebacterium glutamicum^23. Therefore, M. alcaliphilum growth is tested in the presence of RLs. […] The RL toxicity to M. alcaliphilum is much higher than reported concentrations in other Gram-negative host like E. coli (>90 g/L). The toxicity of RLs to M. alcaliphilum required adaptive evolution to permit the strain to produce rhamnolipids.
Luria-Bertani (LB) broth and agar plates are routinely used to culture E. coli cells at 37° C. For routine cultivation of M. alcahphilum strain WT (wild type) and its derivatives, Pi (π) media with 3% (w/v) NaCl is used as described in Collins and Kaluzhnaya.^56 When needed, kanamycin (Kan) is added to the growth medium at 100 μg/mL for ts. alcahphilum and 50 μg/mL for E. coli cultures. Ampicillin is added to the growth medium at 100 μg/mL. M alcahphilum cell cultures are grown as batch cultures, either 4 mL culture in 20 mL anaerobic glass tubes or 10 mL culture in 50 mL serum vials, under a methane (99.9%; Airgas): air atmosphere (1:1). Cell cultures are incubated at 30° shaking at 220 rpm. Cell growth is measured as optical density (OD 600 nm) using Spectronic 200E spectroscope at time points mentioned in results and discussion. Single colony isolates and transformant selections are performed on Pi media agar plates incubated in anaerobic jars (Oxoid; Remel) under a methane-air atmosphere (1:1). For M. alcahphilum (pDA17) induction, antimicrobial activity of Ptet inducer, anhydrotetracycline (aTC) is first evaluated (FIG. 7) on methanol, it is observed that aTC antimicrobial effect on M. alcahphilum is apparent at concentration >2.5 μg/mL. Thus, based on the observation and previous report 33 , concentration of 1 μg/mL aTC is used for optimal gene expression. M. alcahphilum (pDA17) cultures are induced with anhydrotetracycline (1 μg/mL) at time of inoculation^33.

The test system of test [2] is M. alcaliphilum strain DASS. Nature of the test: Rhamnolipid tolerance of the adapted strain after adaptive laboratory evolution. The format is cell-based, Methylotuvimicrobium alcaliphilum. Here is the method: A course of adaptive laboratory evolution to allow M. alcaliphilum to grow on CH4 in the RLs is followed for four months. During this adaptation, M. alcaliphilum strain DSM19304 (hereafter referred as WT, wild type) is subjected to gradually increasing RL concentration starting from 0.5 g/L to 5 g/L (FIG. 2B). At the end of multiple transfers over a period of four months, an M. alcaliphilum strain tolerant to RLs (strain DASS) is obtained.
M. alcahphilum strain DSM19304 is grown in batch cultures of 10 mL Pi media in 50 mL serum vials under a methane-air atmosphere at 30° C. with agitation at 200 rpm. To adapt the cells to grow in the presence of RLs, 0.5 g/L RL (90% mono-RL, Millipore Sigma) is supplemented to the starting cell culture. The concentration of RLs is increased gradually and stepwise (1, 1.5, 2, 3, 4 and 5 g/L) to achieve a final strain of M. alcahphilum tolerant to 5 g/L RL. A 0.1% inoculum is manually transferred from a growing batch culture to a fresh culture in 48-60h. The RL concentration in the media is increased to next higher concentration when the OD 600 nm at 48 h of the growing batch culture with RL reached similar OD600 to WT (>1.0) at the end of 48 h. After the adaptation, single colonies of M. alcahphilum strain DASS are isolated on Pi media agar plates. Multiple single colony isolates are confirmed to be M. alcahphilum via 16S rRNA sequencing to rule out possibility of co-contaminants. No differences are observed in growth of multiple single colonies that are tested, one clone is selected for further analysis and plasmid transformation.

The test system of another test is E. coli. As to conditions: literature; cited from earlier work.

Consider `Cc1c2c(c(O)c3c(O)cccc13)C(=O)[C@]1(O)C(=O)C(C(N)=O)=C(O)[C@@H](N(C)C)[C@@H]1C2` [aTC, anhydrotetracycline], for which the “concentration at which antimicrobial effect is apparent” value in the test with M. alcahphilum was over 2.5 µg/mL.

Broadly, the MIC is the smallest concentration in the dilution series that meets the test's criterion for growth inhibition. As to rhamnolipids, the growth inhibition entry in test [1] (1 g/L RL amendment, 36 hours of culture) is reported as “almost complete inhibition”. The “concentration inhibitory to growth” value in test [1] (M. alcaliphilum DSM19304) is given as under 0.05 g/L. In addition, the “reduction in final optical density” value in test [1] (medium amended with 0.1 g/L RL, 36 hours of culture) is 50%. Besides, the MIC in test [1] (parent strain DSM19304) was 500 µg/mL. Further, in test [1] (strain DSM19304, surfactant effects), the “concentration of rhamnolipids that cannot be tolerated” value amounted to 0.5 g/L. In addition, the “fold higher concentration in which the adapted strain grows compared to parent strain” value in test [2] (DASS vs parent strain) stood at 10 fold. Besides, in test [2] (evolved strain DASS, grown on CH4, listed as RL), the tolerated rhamnolipid concentration is on record as 5 g/L. Moreover, the “growth with RL in the absence of CH4 (RL as carbon source)” value in test [2] (strain DASS, 5 g/L RL, no CH4) is given as “did not promote growth”. The reported toxic concentration in the test on E. coli is on record as over 90 g/L.
